Data reported in PubChem BioAssay (NCI).
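96-well plates; 48 h exposure; 5 concentrations. Endpoints by linear interpolation between flanking doses. Not reached: highest tested concentration assigned. GI50 is the concentration that inhibits growth by half. At the TGI there is no net growth.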

Assays:
Experiment in all cases: NCI tumour cell line growth inhibition, 48 h
[1] = test system: DLD-1 colon
[2] = test system: LXFL 529 NSCLC
[3] = test system: K-562 leukemia
[4] = test system: SW-620 colon
[5] = test system: A498 renal
[6] = test system: OVCAR-4 ovarian
[7] = test system: U251 CNS
[8] = test system: XF 498 CNS
[9] = test system: HCC-2998 colon
[10] = test system: SF-295 CNS
[11] = test system: KM20L2 colon
[12] = test system: DMS 114 small cell lung
[13] = test system: MOLT-4 leukemia
[14] = test system: SF-539 CNS
[15] = test system: CCRF-CEM leukemia
[16] = test system: OVCAR-5 ovarian
[17] = test system: HCT-15 colon
[18] = test system: RXF 393 renal
[19] = test system: RXF-631 renal
[20] = test system: HT29 colon
[21] = test system: NCI-H226 lung
[22] = test system: UACC-62 melanoma
[23] = test system: OVCAR-8 ovarian
[24] = test system: M14 melanoma
[25] = test system: NCI-H23 lung
[26] = test system: UO-31 renal
[27] = test system: SNB-78 CNS
[28] = test system: SK-MEL-28 melanoma
[29] = test system: EKVX NSCLC
[30] = test system: HL-60(TB) leukemia
[31] = test system: HOP-92 NSCLC
[32] = test system: UACC-257 melanoma
[33] = test system: ACHN renal
[34] = test system: HOP-18 NSCLC
[35] = test system: SNB-19 CNS
[36] = test system: OVCAR-3 ovarian
[37] = test system: SK-MEL-5 melanoma
[38] = test system: CAKI-1 renal
[39] = test system: SN12C renal
[40] = test system: SK-OV-3 ovarian
[41] = test system: 786-0 renal
[42] = test system: A549 NSCLC
[43] = test system: IGROV1 ovarian
[44] = test system: HOP-62 NSCLC
[45] = test system: TK-10 renal
[46] = test system: LOX IMVI melanoma
[47] = test system: M19-MEL melanoma
[48] = test system: RPMI-8226 leukemia
[49] = test system: COLO 205 colon
[50] = test system: MALME-3M melanoma
[51] = test system: SF-268 CNS
[52] = test system: MDA-MB-435
[53] = test system: HCT-116 colon
[54] = test system: MCF7 breast
[55] = test system: T-47D breast
[56] = test system: HS 578T breast
[57] = test system: SNB-75 CNS
[58] = test system: NCI-H460 lung
[59] = test system: NCI-H522 lung
[60] = test system: PC-3 prostate
[61] = test system: DU-145 prostate
[62] = test system: SK-MEL-2 melanoma
[63] = test system: SR leukemia
[64] = test system: MDA-N
[65] = test system: NCI/ADR-RES ovarian
[66] = test system: BT-549 breast
[67] = test system: MDA-MB-231 breast
[68] = test system: DMS 273 small cell lung
[69] = test system: KM12 colon

Cc1nc2ccccn2c1N=Nc1ccc(C(=O)NN)cc1
TGI [1]: > 100 µM | TGI [2]: > 100 µM | TGI [3]: > 100 µM | TGI [4]: > 100 µM | TGI [5]: > 100 µM | TGI [6]: > 100 µM | TGI [7]: > 100 µM | TGI [8]: > 100 µM | TGI [9]: > 100 µM | TGI [10]: > 100 µM | TGI [11]: > 100 µM | TGI [12]: > 100 µM | TGI [13]: 40.8 µM | TGI [14]: > 100 µM | TGI [15]: 30.6 µM | TGI [16]: > 100 µM | TGI [17]: > 100 µM | TGI [18]: 60.1 µM | TGI [19]: > 100 µM | TGI [20]: > 100 µM | TGI [21]: > 100 µM | TGI [22]: > 100 µM | TGI [23]: > 100 µM | TGI [24]: > 100 µM | TGI [25]: > 100 µM | TGI [26]: > 100 µM | TGI [27]: > 100 µM | TGI [28]: > 100 µM | TGI [29]: > 100 µM | TGI [30]: > 100 µM | TGI [31]: > 100 µM | TGI [32]: > 100 µM | TGI [33]: > 100 µM | TGI [34]: > 100 µM | TGI [35]: > 100 µM | TGI [36]: > 100 µM | TGI [37]: 69.1 µM | TGI [38]: > 100 µM | TGI [39]: > 100 µM | TGI [40]: > 100 µM | TGI [41]: > 100 µM | TGI [42]: > 100 µM | TGI [43]: 89.7 µM | TGI [44]: > 100 µM | TGI [45]: > 100 µM | TGI [46]: > 100 µM | TGI [47]: > 100 µM | TGI [48]: > 100 µM | TGI [49]: > 100 µM | TGI [50]: > 100 µM | TGI [51]: > 100 µM

COC1/C=C\C=C(/C)C(=O)NC2=CC(=O)C(N)=C(CC(C)CC(OC)C(O)C(C)C=C(C)C1OC(N)=O)C2=O (stereo not drawn)
TGI [1]: 17.7 µM | GI50 [52]: 0.051 µM | TGI [52]: 14.9 µM | TGI [2]: > 100 µM | GI50 [3]: 0.0982 µM | TGI [3]: > 69.6 µM | GI50 [4]: 0.0468 µM | TGI [4]: 17.4 µM | TGI [5]: > 96.4 µM | TGI [53]: 25.3 µM | TGI [6]: 36.9 µM | GI50 [7]: 0.0822 µM | TGI [7]: > 48.9 µM | TGI [8]: 24.8 µM | TGI [9]: 1.74 µM | TGI [10]: > 62.2 µM | TGI [11]: 0.0192 µM | TGI [13]: 48.7 µM | GI50 [14]: 0.0397 µM | TGI [14]: > 44.4 µM | TGI [15]: 35.8 µM | TGI [54]: 37.6 µM | TGI [16]: 39.7 µM | TGI [55]: 33.7 µM | TGI [56]: 59.4 µM | TGI [57]: 11.3 µM | TGI [17]: 31.5 µM | TGI [18]: > 94.7 µM | TGI [19]: > 100 µM | GI50 [20]: 0.0337 µM | TGI [20]: > 63.7 µM | TGI [21]: > 100 µM | GI50 [22]: 0.0322 µM | TGI [22]: 18.4 µM | TGI [23]: 33.9 µM | GI50 [58]: 0.0459 µM | TGI [58]: > 54.7 µM | GI50 [24]: 0.0379 µM | TGI [24]: 33.4 µM | TGI [59]: 0.392 µM | GI50 [25]: 0.0375 µM | TGI [25]: 21.5 µM | TGI [60]: > 75.7 µM | GI50 [61]: 0.067 µM | TGI [61]: 31.7 µM | TGI [62]: 14.9 µM | TGI [26]: 40.4 µM | GI50 [63]: < 0.01 µM | TGI [63]: 1.64 µM | TGI [27]: 91.1 µM | GI50 [28]: 0.0513 µM | TGI [28]: > 73.8 µM | TGI [29]: 63 µM | TGI [30]: 19.3 µM | TGI [32]: 14.5 µM | GI50 [64]: 0.0829 µM | TGI [64]: 12.6 µM | TGI [33]: 83.5 µM | TGI [34]: 32.4 µM | TGI [65]: > 100 µM | TGI [35]: 93.7 µM | TGI [36]: 20.2 µM | TGI [37]: 15.8 µM | TGI [38]: > 89.8 µM | TGI [39]: 29 µM | GI50 [40]: 0.0822 µM | TGI [40]: > 100 µM | TGI [41]: > 100 µM | TGI [42]: 40.9 µM | TGI [43]: 25.9 µM | TGI [44]: > 78 µM | TGI [45]: > 77.2 µM | GI50 [46]: 0.0761 µM | TGI [46]: 1.55 µM | TGI [47]: 12.5 µM | GI50 [66]: 0.0806 µM | TGI [66]: > 45.2 µM | TGI [48]: 65.4 µM | GI50 [49]: 0.0614 µM | TGI [49]: 0.0507 µM | TGI [50]: 15.4 µM | TGI [51]: 68.6 µM

CN(C)CCNc1ccc2nnn3c4ccccc4c(=O)c1c23
TGI [1]: 22.9 µM | TGI [52]: 13.8 µM | TGI [2]: 17.5 µM | TGI [3]: 18.9 µM | TGI [4]: 11 µM | TGI [5]: 8.96 µM | TGI [53]: 13.7 µM | TGI [6]: 9.44 µM | TGI [7]: 7.63 µM | TGI [8]: 19.5 µM | TGI [9]: 13.1 µM | TGI [10]: 13.8 µM | TGI [11]: 11.6 µM | TGI [12]: 12.7 µM | TGI [13]: 21 µM | TGI [14]: 15.6 µM | TGI [15]: 20.6 µM | TGI [54]: 25.2 µM | TGI [16]: 11.4 µM | TGI [55]: 32.3 µM | TGI [56]: 9.8 µM | TGI [57]: 10.4 µM | TGI [17]: 13 µM | TGI [18]: 16.6 µM | TGI [19]: 10.3 µM | TGI [20]: 11 µM | TGI [21]: 5.28 µM | TGI [22]: 11.6 µM | TGI [23]: 9.91 µM | TGI [58]: 7.16 µM | TGI [24]: 9.03 µM | TGI [59]: 8.31 µM | TGI [25]: 11.6 µM | TGI [60]: 7.79 µM | TGI [61]: 9.68 µM | TGI [62]: 13.9 µM | TGI [26]: 8.6 µM | TGI [63]: > 32.8 µM | TGI [27]: 30.5 µM | TGI [28]: 15.1 µM | TGI [29]: 13.4 µM | TGI [30]: 15.7 µM | TGI [31]: 9.6 µM | TGI [32]: 11.4 µM | TGI [64]: 12.4 µM | TGI [33]: 7.01 µM | TGI [65]: 9.82 µM | TGI [35]: 34.8 µM | TGI [36]: 12.8 µM | TGI [37]: 5.35 µM | TGI [38]: 18.5 µM | TGI [67]: 15.3 µM | TGI [39]: 19.9 µM | TGI [40]: 33.2 µM | TGI [68]: 11.5 µM | TGI [41]: 16.5 µM | TGI [42]: 6.56 µM | TGI [43]: 26.5 µM | TGI [44]: 14.2 µM | TGI [45]: 12.7 µM | TGI [46]: 3.72 µM | TGI [69]: 13.9 µM | TGI [47]: 9.42 µM | TGI [66]: 32.3 µM | TGI [48]: 23.9 µM | TGI [49]: 5.9 µM | TGI [50]: 10.4 µM | TGI [51]: 18.8 µM

Cc1ccc(C(=O)O)cc1NC(=O)c1cc(/C=C/c2ccccc2)[nH]c(=S)n1
TGI [1]: > 77.1 µM | TGI [2]: > 100 µM | TGI [3]: > 100 µM | TGI [4]: > 48.8 µM | TGI [5]: > 100 µM | TGI [53]: > 53 µM | TGI [6]: > 100 µM | TGI [7]: > 100 µM | TGI [8]: > 100 µM | TGI [9]: > 100 µM | TGI [10]: > 100 µM | TGI [11]: > 100 µM | TGI [12]: > 100 µM | TGI [13]: > 100 µM | TGI [14]: > 100 µM | TGI [15]: > 100 µM | TGI [16]: > 100 µM | TGI [57]: > 100 µM | TGI [17]: > 60.7 µM | TGI [18]: > 100 µM | TGI [19]: > 100 µM | TGI [20]: > 100 µM | TGI [21]: > 100 µM | TGI [22]: > 100 µM | TGI [23]: > 100 µM | TGI [58]: > 100 µM | TGI [24]: > 100 µM | TGI [59]: > 100 µM | TGI [25]: > 100 µM | TGI [26]: > 100 µM | TGI [63]: > 100 µM | TGI [27]: > 100 µM | TGI [28]: > 100 µM | TGI [29]: > 100 µM | TGI [30]: > 100 µM | TGI [31]: > 100 µM | TGI [32]: > 100 µM | TGI [33]: > 100 µM | TGI [34]: > 100 µM | TGI [35]: > 100 µM | TGI [36]: > 100 µM | TGI [37]: > 100 µM | TGI [38]: > 100 µM | TGI [39]: > 100 µM | TGI [40]: > 100 µM | TGI [68]: > 100 µM | TGI [41]: > 100 µM | TGI [42]: > 100 µM | TGI [43]: > 100 µM | TGI [44]: > 100 µM | TGI [45]: > 100 µM | TGI [46]: > 100 µM | TGI [69]: > 100 µM | TGI [48]: > 69.7 µM | TGI [49]: > 100 µM | TGI [50]: > 100 µM | TGI [51]: > 100 µM
